11 compounds from ChEMBL document CHEMBL1201862, “PubChem BioAssay data set” (2004) can be followed below.

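Test compounds were applied to cells in 96-well plates for 48 hours at 5 doses. GI50 marks 50% less growth.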 The source made the active and inactive calls. Rule as the data show it: active = GI50 up to about 1.1 µM and inactive = higher.

Among the test systems are SF-295; RPMI-8226; MOLT-4; CCRF-CEM; NCI/ADR-RES; OVCAR-3; SR; OVCAR-4; NCI-H23; CAKI-1; Malme-3M; SK-MEL-5; MDA-MB-435; HCT-116; A549; HOP-62; K562; ACHN; A498; HCC 2998.
Experiment in all cases: NCI anticancer screen, dose series, 48 h

For `C=C(Br)CN(C)CC(=C)Br`, the GI50 in the test on SF-295, in the test with RPMI-8226, in the test with MOLT-4, in the test on CCRF-CEM, in the test with NCI/ADR-RES and with OVCAR-3 was > 100 µM (inactive) each time. For the same compound, the GI50 in the test on SR, in the test with OVCAR-4, with NCI-H23, in the test on CAKI-1, in the test with Malme-3M and in the test with SK-MEL-5 was > 100 µM (inactive) throughout. The GI50 with MDA-MB-435, in the test with HCT-116, in the test with A549, in the test on HOP-62, with K562 and in the test on ACHN was > 100 µM (inactive) each time. The GI50 in the test with A498 is > 100 µM (inactive).

Consider `O=C(Nc1nc2c(=O)[nH]cnc2s1)c1ccccc1`, for which the GI50 is > 100 µM (inactive) in the test on SF-295; > 100 µM (inactive) with CCRF-CEM; > 100 µM (inactive) with NCI/ADR-RES; > 100 µM (inactive) in the test on OVCAR-3; 0.315 µM (active) in the test with SR; > 100 µM (inactive) in the test on OVCAR-4. Also, the GI50 was > 100 µM (inactive) in the test with NCI-H23; 43.6 µM (inactive) with CAKI-1; > 100 µM (inactive) with HCC 2998; > 100 µM (inactive) in the test with Malme-3M; > 100 µM (inactive) in the test on SK-MEL-5; 88.5 µM (inactive) in the test with MDA-MB-435. Also, the GI50 is > 100 µM (inactive) with HCT-116; 81.7 µM (inactive) in the test with A549; > 100 µM (inactive) in the test on HOP-62; 62.5 µM (inactive) in the test with K562; 91 µM (inactive) in the test with ACHN; 83.4 µM (inactive) in the test with A498.

In the case of `Cc1ccc(S(=O)(=O)N(c2ccccc2F)C2CCCCC2O)cc1` (centres undefined), the GI50 is > 100 µM (inactive) in the test on SF-295; 36.9 µM (inactive) in the test with RPMI-8226; 56.9 µM (inactive) with CCRF-CEM; 42.4 µM (inactive) in the test with NCI/ADR-RES; 29.5 µM (inactive) with OVCAR-3; 24.4 µM (inactive) with SR. Also, the GI50 in the test with OVCAR-4 is 39.5 µM (inactive); with NCI-H23, 34.4 µM (inactive); in the test with HCC 2998, 74.6 µM (inactive); with Malme-3M it was 58.7 µM (inactive); with SK-MEL-5, 20.7 µM (inactive); in the test with MDA-MB-435 it was 19.4 µM (inactive). Moreover, the GI50 was 18 µM (inactive) in the test on HCT-116; 35.2 µM (inactive) in the test on A549; 96.2 µM (inactive) in the test on HOP-62; 42.2 µM (inactive) in the test with K562; 57.7 µM (inactive) with ACHN; 38.1 µM (inactive) with A498.

As for `C=C(C)OCOCCOC`, the GI50 in the test with SF-295, in the test with RPMI-8226, in the test with MOLT-4, in the test with CCRF-CEM, in the test on NCI/ADR-RES and in the test on OVCAR-3 was > 100 µM (inactive) each time. For the same compound, the GI50 in the test on SR, with NCI-H23, in the test on CAKI-1, in the test with HCC 2998, with Malme-3M and with SK-MEL-5 was > 100 µM (inactive) each time. The GI50 in the test with MDA-MB-435, in the test with HCT-116, in the test with A549, in the test on HOP-62, with K562 and in the test on ACHN was > 100 µM (inactive) throughout. Moreover, the GI50 with A498 is > 100 µM (inactive).

On to `COc1cc(/N=C\N(C)C)c2ncccc2c1`, for which the GI50 in the test on SF-295 was 93.3 µM (inactive); in the test with RPMI-8226, 46.5 µM (inactive); in the test with MOLT-4 it was 35.7 µM (inactive); in the test on CCRF-CEM, 28 µM (inactive); in the test with NCI/ADR-RES, 45.4 µM (inactive); in the test on OVCAR-3, 56.6 µM (inactive). Further, the GI50 in the test on SR is 1.62 µM (inactive); in the test with OVCAR-4 it was > 100 µM (inactive); with NCI-H23, > 100 µM (inactive); in the test on CAKI-1, 86.3 µM (inactive); in the test on Malme-3M, > 100 µM (inactive); in the test with SK-MEL-5, 52.1 µM (inactive). Moreover, the GI50 was 28.5 µM (inactive) with MDA-MB-435; 35.2 µM (inactive) in the test on HCT-116; 79.6 µM (inactive) with A549; > 100 µM (inactive) in the test with HOP-62; 15.8 µM (inactive) in the test on K562; > 100 µM (inactive) with ACHN. Moreover, in the test with A498, the GI50 was 42.7 µM (inactive).

For the compound `O=c1cnn(C/C=C\CO)c(=O)[nH]1`, the GI50 in the test with RPMI-8226, with CCRF-CEM, in the test on NCI/ADR-RES, in the test on OVCAR-3, with SR and in the test with NCI-H23 was > 100 µM (inactive) each time. In addition, the GI50 in the test on CAKI-1, in the test on HCC 2998, in the test with Malme-3M, in the test with SK-MEL-5, in the test on MDA-MB-435 and in the test on A549 was > 100 µM (inactive) each time. Moreover, the GI50 with HOP-62, with K562, with ACHN and in the test with A498 was > 100 µM (inactive) each time.

For `C[C@]12CC[C@H](OC(=O)Cc3ccc(N(CCCl)CCCl)cc3)CC1=CC[C@@H]1[C@@H]2CC[C@]2(C)C(=O)CC[C@@H]12`, the GI50 in the test with RPMI-8226 is > 100 µM (inactive); in the test on MOLT-4, > 100 µM (inactive); in the test with NCI/ADR-RES it was > 100 µM (inactive); in the test with OVCAR-3 it was > 100 µM (inactive); with SR it was 3.61 µM (inactive); with NCI-H23, > 100 µM (inactive). Further, the GI50 with CAKI-1, with HCC 2998, with Malme-3M, in the test with SK-MEL-5, with MDA-MB-435 and in the test on A549 was > 100 µM (inactive) throughout. Moreover, the GI50 in the test with HOP-62, in the test on K562, in the test on ACHN and with A498 was > 100 µM (inactive) throughout.

In the case of `CN(C)/C=N/CC(O)c1ccccc1` (centres undefined), the GI50 in the test with RPMI-8226, with MOLT-4, with CCRF-CEM, in the test on NCI/ADR-RES, in the test on OVCAR-3 and in the test with SR was > 100 µM (inactive) in each case. Further, the GI50 in the test on OVCAR-4, in the test on NCI-H23, in the test on CAKI-1, with Malme-3M, in the test with SK-MEL-5 and in the test on MDA-MB-435 was > 100 µM (inactive) each time. Moreover, the GI50 in the test with HCT-116, in the test with A549, in the test with HOP-62, in the test with K562, with ACHN and in the test with A498 was > 100 µM (inactive) each time.

Consider `CCCCCCOP(=O)(OCCCCCC)C(NC(=O)OCC)(C(F)(F)F)C(F)(F)F`, for which the GI50 in the test on SF-295 was 30.3 µM (inactive); in the test on RPMI-8226 it was > 100 µM (inactive); with MOLT-4, > 100 µM (inactive); in the test with CCRF-CEM, 42.1 µM (inactive); in the test with NCI/ADR-RES, 28.8 µM (inactive); in the test with OVCAR-3, 45.1 µM (inactive). Also, the GI50 in the test with SR was 50.8 µM (inactive); with CAKI-1, 51.6 µM (inactive); in the test on HCC 2998 it was > 10 µM (inactive); in the test on Malme-3M it was 34.4 µM (inactive); with SK-MEL-5 it was 20 µM (inactive); with MDA-MB-435, 36.6 µM (inactive). For the same compound, the GI50 in the test on HCT-116 was 27.4 µM (inactive); with A549, 36.9 µM (inactive); in the test on HOP-62, > 100 µM (inactive); in the test with K562, 39.4 µM (inactive); in the test with ACHN it was 28.8 µM (inactive); with A498, > 100 µM (inactive).

As for `C=C(C)COc1ccc2c(c1)CCC1C2CCC2(C)C(=O)/C(=N/O)CC12` (centres undefined), the GI50 is 4.37 µM (inactive) with SF-295; 2.39 µM (inactive) in the test on RPMI-8226; 1.76 µM (inactive) with MOLT-4; 1.94 µM (inactive) in the test on CCRF-CEM; 4.27 µM (inactive) with NCI/ADR-RES; 3.43 µM (inactive) with OVCAR-3. The GI50 with SR is 0.966 µM (active); in the test with OVCAR-4, 2.39 µM (inactive); in the test with NCI-H23, 3.21 µM (inactive); with CAKI-1, 1.21 µM (inactive); in the test on Malme-3M, 13.8 µM (inactive); in the test on SK-MEL-5, 8.11 µM (inactive). The GI50 in the test with MDA-MB-435 is 2.27 µM (inactive); in the test on HCT-116, 1.52 µM (inactive); in the test on A549, 9.62 µM (inactive); in the test on HOP-62 it was 5.43 µM (inactive); in the test on K562, 2.73 µM (inactive); in the test on ACHN it was 3.12 µM (inactive). For the same compound, the GI50 with A498 was 11.1 µM (inactive).

In the case of `CC(C)[Si]1(C(C)C)OCC2OC(n3ccc(=O)[nH]c3=O)C(O)(CO)C2O[Si](C(C)C)(C(C)C)O1` (centres undefined), the GI50 was 15 µM (inactive) in the test on SF-295; 9.82 µM (inactive) in the test on RPMI-8226; 12.3 µM (inactive) in the test with MOLT-4; 12.4 µM (inactive) with CCRF-CEM; 16 µM (inactive) with NCI/ADR-RES; 15.8 µM (inactive) with OVCAR-3. Moreover, the GI50 in the test on SR is 12.9 µM (inactive); in the test with OVCAR-4, 13.8 µM (inactive); in the test on NCI-H23 it was 3.62 µM (inactive); in the test with CAKI-1, 15.8 µM (inactive); with Malme-3M, 15 µM (inactive); in the test with SK-MEL-5, 15.1 µM (inactive). Besides, the GI50 was 17 µM (inactive) in the test on MDA-MB-435; 14.3 µM (inactive) in the test on HCT-116; 14.4 µM (inactive) in the test on A549; 19.4 µM (inactive) in the test with HOP-62; 18.4 µM (inactive) in the test on K562; 17.1 µM (inactive) with ACHN. Further, in the test on A498, the GI50 is 20.7 µM (inactive).
